The target of assay [1] is T1, human ACC1 (Homo sapiens, UniProt Q13085).
T1 construct: made in house; host or cells: SF-9 insect cells, recombinant baculovirus BAC-ACC1
In words: ACC1 inhibitory activity (malachite green absorbance assay, recombinant enzyme). It is filed as biochemical. To be noted: Experimental Example 3; same manner as Experimental Example 1; read-out: IC50 values (ACC1 inhibitory activity).

Assay [2] deals with T2, human ACC2 (Homo sapiens, UniProt O00763).
T2 construct: made in house; host or cells: SF-9 insect cells, recombinant baculovirus BAC-ACC2(Nd)
In words: ACC2 inhibitory activity (malachite green absorbance assay, recombinant ACC2(Nd)). To be noted: Experimental Example 4; same manner as Experimental Example 2; read-out: IC50 values (ACC2 inhibitory activity). It is filed as biochemical.

Each structure is given as a SMILES string.

Broadly, the IC50 is the concentration at which inhibition is half-maximal.

T2 sequence (O00763 117-2458 limits assumed): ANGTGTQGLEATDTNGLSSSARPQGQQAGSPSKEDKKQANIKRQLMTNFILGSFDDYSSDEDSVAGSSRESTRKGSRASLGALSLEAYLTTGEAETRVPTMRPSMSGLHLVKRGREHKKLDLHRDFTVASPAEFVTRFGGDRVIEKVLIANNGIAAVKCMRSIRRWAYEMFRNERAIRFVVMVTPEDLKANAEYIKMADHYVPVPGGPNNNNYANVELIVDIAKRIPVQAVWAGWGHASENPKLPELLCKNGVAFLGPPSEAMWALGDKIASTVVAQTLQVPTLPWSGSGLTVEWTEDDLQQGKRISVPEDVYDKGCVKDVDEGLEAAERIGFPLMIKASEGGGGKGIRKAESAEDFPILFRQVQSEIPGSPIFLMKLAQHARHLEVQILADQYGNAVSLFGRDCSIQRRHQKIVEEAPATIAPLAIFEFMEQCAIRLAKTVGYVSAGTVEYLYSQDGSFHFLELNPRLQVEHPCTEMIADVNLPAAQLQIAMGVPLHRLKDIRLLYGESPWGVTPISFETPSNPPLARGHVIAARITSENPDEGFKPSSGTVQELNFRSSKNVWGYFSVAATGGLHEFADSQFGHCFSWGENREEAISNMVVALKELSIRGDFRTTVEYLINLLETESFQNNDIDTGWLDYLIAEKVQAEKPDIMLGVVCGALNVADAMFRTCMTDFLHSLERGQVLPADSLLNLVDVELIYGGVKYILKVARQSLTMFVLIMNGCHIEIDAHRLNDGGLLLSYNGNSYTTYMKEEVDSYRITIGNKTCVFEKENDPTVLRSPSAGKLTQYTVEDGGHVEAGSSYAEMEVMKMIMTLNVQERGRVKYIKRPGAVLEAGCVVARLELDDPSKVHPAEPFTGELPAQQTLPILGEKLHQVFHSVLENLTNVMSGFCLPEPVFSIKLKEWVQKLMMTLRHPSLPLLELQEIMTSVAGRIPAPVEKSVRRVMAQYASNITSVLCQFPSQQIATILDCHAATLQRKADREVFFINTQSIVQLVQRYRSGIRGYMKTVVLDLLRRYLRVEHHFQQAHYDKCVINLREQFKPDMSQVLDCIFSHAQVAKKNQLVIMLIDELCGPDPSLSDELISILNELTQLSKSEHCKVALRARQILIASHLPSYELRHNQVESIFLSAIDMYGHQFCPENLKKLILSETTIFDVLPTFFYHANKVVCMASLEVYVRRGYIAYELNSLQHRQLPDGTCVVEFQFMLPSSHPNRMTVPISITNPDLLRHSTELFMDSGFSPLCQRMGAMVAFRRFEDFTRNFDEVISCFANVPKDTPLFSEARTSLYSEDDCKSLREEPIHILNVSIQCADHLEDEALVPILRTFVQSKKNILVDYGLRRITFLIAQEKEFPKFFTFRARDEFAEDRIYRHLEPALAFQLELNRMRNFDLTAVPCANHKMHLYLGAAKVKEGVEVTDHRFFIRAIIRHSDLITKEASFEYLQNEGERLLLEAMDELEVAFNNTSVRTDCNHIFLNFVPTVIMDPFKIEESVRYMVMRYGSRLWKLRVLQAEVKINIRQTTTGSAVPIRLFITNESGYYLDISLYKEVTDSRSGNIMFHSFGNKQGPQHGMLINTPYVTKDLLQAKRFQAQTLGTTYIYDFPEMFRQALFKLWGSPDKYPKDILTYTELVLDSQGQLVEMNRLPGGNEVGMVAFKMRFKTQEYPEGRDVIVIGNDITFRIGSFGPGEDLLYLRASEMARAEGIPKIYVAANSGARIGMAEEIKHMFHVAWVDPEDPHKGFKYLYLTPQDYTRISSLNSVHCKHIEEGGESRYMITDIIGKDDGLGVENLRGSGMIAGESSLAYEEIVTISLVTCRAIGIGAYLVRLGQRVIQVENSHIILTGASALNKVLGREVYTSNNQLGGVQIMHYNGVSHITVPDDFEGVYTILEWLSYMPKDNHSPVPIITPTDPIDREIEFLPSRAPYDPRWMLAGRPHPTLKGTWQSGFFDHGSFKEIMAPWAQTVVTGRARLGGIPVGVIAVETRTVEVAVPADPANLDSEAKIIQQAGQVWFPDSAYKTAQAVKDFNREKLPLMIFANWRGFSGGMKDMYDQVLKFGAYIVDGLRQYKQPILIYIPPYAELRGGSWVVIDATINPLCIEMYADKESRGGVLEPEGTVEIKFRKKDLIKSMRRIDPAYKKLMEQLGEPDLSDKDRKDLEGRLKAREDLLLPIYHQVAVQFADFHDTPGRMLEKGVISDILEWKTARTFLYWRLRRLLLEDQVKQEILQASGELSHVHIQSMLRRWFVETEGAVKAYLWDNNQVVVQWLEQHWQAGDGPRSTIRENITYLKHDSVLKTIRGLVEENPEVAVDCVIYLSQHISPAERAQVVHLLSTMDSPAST

On to `CCNC(=O)Nc1sc2c(c1C(=O)N1CCC(N3CCCC4(C3)OC(=O)N(C(C)(C)C)C4=O)CC1)CCCC2=O` (centres unmarked) [Example 420, N-(3-{[4-(3-tert-butyl-2,4-dioxo-1-oxa-3,7-diazaspiro[4.5]dec-7-yl)piperidin-1-yl]carbonyl}-7-oxo-4,5,6,7-tetrahydro-1-benzothien-2-yl)-N′-ethylurea], for which the IC50 was not above 100 nM in assay [1] and not above 10 nM in assay [2].

Values taken from patent US20100160255A1, “SPIRO-CYCLIC COMPOUND” (Takeda Pharmaceutical Company Limited, priority 2005, published 2010).
